Results published in patent publication US10517867B2, “Posaconazole derivative, pharmaceutical composition and use thereof” (priority 2016, dated 2019).
Read-outs that look alike come from different tables or passages of the source.

How the values were obtained:
[1] = Pharmacokinetics after single intragastric administration to rats; format: in vivo, SD rats; conditions: plasma posaconazole, 2.5 mg/kg (calculated as posaconazole)
Description: Administration amount: 2.5 mg/kg (calculated as posaconazole)
Administration volume: 10 ml/kg
Drug concentration: 0.25 mg/mL
Administration vehicle: the positive drug posaconazole group used CMC—Na, while other groups used normal saline (physiological saline)
Administration route: intragastric administration
Experimental animals: SD rats, SPF grade, weighing 180-220 g, equal amount of male and female. Rats were randomly divided into groups of 6 with 3 males and 3 females.
Experimental protocol: after oral intragastric administration, blood samples were collected at different time points to determine the concentration of posaconazole in the plasma and the pharmacokinetic parameters of posaconazole were obtained.

[2] = tested on: Candida albicans ATCC10231; assay: Candida albicans vaginitis in mice, intravenous administration; conditions: logarithm of the CFU values, mean ± SD of 20 mice; for vaginal fungal load of mice, day 5: 20 mg/kg tail vein once a day for 5 days, day 5 after infection; for vaginal fungal load of mice, day 3: 20 mg/kg tail vein once a day, day 3 after infection
Description: KM mice, weighing 18-22 g, female, provided by Hubei Experimental Animal Center.
The standard strain of Candida albicans was purchased from the American Type Culture
Collection, strain number ATCC10231.
Prior to being infected with Candida albicans, animals in each group were given subcutaneous injections of 0.5 ml of estradiol benzoate (2 mg/ml) for 6 consecutive days to allow them to enter the estrus phase. Injections were continued once every 2 days until the completion of the experiment. After 6 days, 20 μl of Candida albicans solution in a concentration of 3.5×10^6 CFU/ml was injected vaginally into each mouse, causing a vaginal infection model. From the first day after infection, each group of animals was given 20 mg/kg of the corresponding drug (calculated as posaconazole) in the tail vein at an administration volume of 0.1 ml/10 g once a day for 5 consecutive days. The model group was given an equal volume of solvent (physiological saline). On the 3rd and 5th days after infection, the vagina of mice were wiped with sterile cotton swabs. The cotton swabs were soaked in 0.9 ml physiological saline. The fungal solutions were diluted to 10-fold increments to give a series of concentrations, and then 100 μl of each concentration of the bacteria solutions was taken and inoculated on Sabourand's dextrose agar solid medium containing 0.5% (W/V) chloramphenicol to observe the fungal load of Candida albicans on the vagina.

[3] = Determination of solubility in deionized water (HPLC, external standard)
[4] = tested on: Aspergillus fumigatus AF293; assay: Lung Aspergillus fumigatus infection in immunosuppressed mice, intravenous administration; conditions: for responders at 20 mg/kg: Aspergillus fumigatus, AF293, in Mus musculus, iv; for lung fungal load: mouse lung tissue, seven days later, 20 mg/kg tail vein once daily for 5 days, mean ± SD
Description: ICR male mice were injected intraperitoneally with cyclophosphamide 150 mg/kg and injected subcutaneously with dexamethasone 150 mg/kg for 10 consecutive days. At the same time, the blood was taken to measure the changes of peripheral white blood cells and neutrophils, and mice with neutrophils consistently lower than 100/μl were selected as successfully immunosuppressed mice. Immediately after the last injection, the mice were anesthetized with ethyl ether, and mice were transferred from the initial state of excitement to inhibition. After their bodies were relaxed, the mice were immediately taken. Left hand was used to grasp the mouse to make it stand upright, the middle finger pressed the mouth so that it could breath only with the nose, and the ring finger gently pressed the abdomen to move the diaphragm muscle upward. 30 μl of conidia suspension (Aspergillus fumigatus AF293, 3×10^6 conidia) was sent to the nostrils of the anesthetized mice by a micropipette to allow spontaneous inhalation. After the mouse returned to normal breathing, it was returned to the cage. […] The death of the mice was observed and the survival time was recorded. Seven days later, the mice were sacrificed and their lung tissues were taken to observe the fungal loads of Aspergillus fumigatus in the lungs of the mice.

[5] = tested on: Aspergillus fumigatus AF293; assay: Lung Aspergillus fumigatus infection in immunosuppressed mice, intragastric administration; conditions: mouse lung tissue, seven days later; 20 mg/kg intragastric once daily for 5 days; mean ± SD
Description: Aspergillus fumigatus AF293, from the Guangdong Provincial Microbial Culture Collection Center.
ICR male mice were injected intraperitoneally with cyclophosphamide 150 mg/kg and injected subcutaneously with dexamethasone 150 mg/kg for 10 consecutive days. At the same time, the blood was taken to measure the changes of peripheral white blood cells and neutrophils, and mice with neutrophils consistently lower than 100/μl were selected as successfully immunosuppressed mice. Immediately after the last injection, the mice were anesthetized with ethyl ether, and mice were transferred from the initial state of excitement to inhibition. After their bodies were relaxed, the mice were immediately taken. Left hand was used to grasp the mouse to make it stand upright, the middle finger pressed the mouth so that it could breath only with the nose, and the ring finger gently pressed the abdomen to move the diaphragm muscle upward. 30 μl of conidia suspension (Aspergillus fumigatus AF293, 3×10^6 conidia) was sent to the nostrils of the anesthetized mice by a micropipette to allow spontaneous inhalation. After the mouse returned to normal breathing, it was returned to the cage. […] Seven days later, the mice were sacrificed and their lung tissues were taken to observe the fungal loads of Aspergillus fumigatus in the lungs of the mice.

[6] = tested on: Aspergillus Fumigutus (AF) strains; assay: Aspergillus fumigatus keratitis in rats, intravenous administration; conditions: 10 mg/kg tail vein once daily for 5 days; mean ± SD of 10 rats
[7] = Solid stability test (stability chamber, HPLC total impurity); format: physicochemical; conditions: solid, packaged, 25° C.±2° C., relative humidity 60%±2%
[8] = tested on: Candida albicans ATCC10231; assay: Candida albicans vaginitis in mice, intragastric administration; format: in vivo, KM mice; conditions: logarithm of the CFU values, mean ± SD of 20 mice, 20 mg/kg intragastric once a day, 20 mg/kg
[9] = tested on: Candida albicans ATCC10231; assay: Systemic fungal infection in mice, intragastric administration; format: in vivo, ICR mice; conditions: Candida albicans, ATCC10231, po
[10] = tested on: Candida albicans ATCC10231; assay: Systemic fungal infection in mice, intravenous administration; format: in vivo, ICR mice
[11] = 24 h, read-out: survival rate of mice, day 1, 20 mg/kg tail vein once daily for 5 days, day 1
[12] = 48 h, read-out: survival rate of mice, day 2, 20 mg/kg tail vein once daily for 5 days, day 2
[13] = 72 h, read-out: survival rate of mice, day 3, 20 mg/kg tail vein once daily for 5 days, day 3
[14] = 96 h, read-out: survival rate of mice, day 4, 20 mg/kg tail vein once daily for 5 days, day 4
[15] = 120 h, read-out: survival rate of mice, day 5, 20 mg/kg tail vein once daily for 5 days, day 5
[16] = 144 h, read-out: survival rate of mice, day 6, 20 mg/kg tail vein once daily for 5 days, day 6
[17] = 168 h, read-out: survival rate of mice, day 7, 20 mg/kg tail vein once daily for 5 days, day 7

CC[C@@H]([C@H](C)O)n1ncn(-c2ccc(N3CCN(c4ccc(OC[C@@H]5CO[C@@](Cn6c[n+](C(C)OC(=O)NCC(=O)[O-])cn6)(c6ccc(F)cc6F)C5)cc4)CC3)cc2)c1=O.[Cl-].[Na+] (some centres unmarked) [ST0019]
AUClast [1]: 1985 ± 358 ng·h/mL
Cmax [1]: 102 ± 26 ng/mL
T1/2 [1]: 11.41 ± 3.25 h

CC[C@@H]([C@H](C)OP(=O)(O)O)n1ncn(-c2ccc(N3CCN(c4ccc(OC[C@@H]5CO[C@@](Cn6c[n+](C(C)OC(=O)N(C)c7ncccc7COC(=O)[C@@H](N)CCCN)cn6)(c6ccc(F)cc6F)C5)cc4)CC3)cc2)c1=O (some centres unmarked) [ST0009]
vaginal fungal load of mice, day 5 [2]: 3.89 ± 0.54
vaginal fungal load of mice, day 3 [2]: 4.05 ± 0.23
solubility at 30 min ([3]; 25 °C, water, thermodynamic from solid): > 50 mg/mL
responders at 20 mg/kg [4, 11]: 100%
responders at 20 mg/kg [4, 12]: 100%
responders at 20 mg/kg [4, 13]: 100%
responders at 20 mg/kg [4, 14]: 90%
responders at 20 mg/kg [4, 15]: 80%
responders at 20 mg/kg [4, 16]: 80%
responders at 20 mg/kg [4, 17]: 70%
lung fungal load [4]: 2.03 ± 0.46 10^4 CFU/ml
lung fungal load [5]: 3.91 ± 0.85 10^4 CFU/ml
Amount of active fungi in cornea at day 7 [6]: 2.76 ± 0.45 10^3 CFU/ml

CC[C@@H]([C@H](C)O)n1ncn(-c2ccc(N3CCN(c4ccc(OC[C@@H]5CO[C@@](Cn6c[n+](C(C)OC(=O)N(C)c7ncccc7COC(=O)[C@@H](N)CCCN)cn6)(c6ccc(F)cc6F)C5)cc4)CC3)cc2)c1=O (some centres unmarked) [ST0003]
Total impurity increment in 30 days [7]: 0.68%
vaginal fungal load of mice, day 5 ([2]; 20 mg/kg): 3.85 ± 0.28
vaginal fungal load of mice, day 3 ([2]; 20 mg/kg): 4.11 ± 0.30
Solubility ([3]; 25±2° C., after 30 min): >50 mg/mL
responders at 20 mg/kg [4, 11]: 100%
responders at 20 mg/kg [4, 12]: 100%
responders at 20 mg/kg [4, 13]: 100%
responders at 20 mg/kg [4, 14]: 100%
responders at 20 mg/kg [4, 15]: 100%
responders at 20 mg/kg [4, 16]: 90%
responders at 20 mg/kg [4, 17]: 90%
lung fungal load ([4]; 20 mg/kg): 1.39 ± 0.32 10^4 CFU/ml
vaginal fungal load of mice, day 3 ([8]; day 3): 4.23 ± 0.41
vaginal fungal load of mice, day 5 ([8]; day 5): 4.05 ± 0.37
vaginal fungal load of mice, day 7 ([8]; day 7): 3.28 ± 0.36
vaginal fungal load of mice, day 11 ([8]; day 11): 2.47 ± 0.18
Amount of active fungi in cornea at day 7 [6]: 1.48 ± 0.38 10^3 CFU/ml
responders at 20 mg/kg ([9]; 24 h, read-out: survival rate of mice, day 1, 20 mg/kg intragastric once daily for 5 days, day 1): 100%
responders at 20 mg/kg ([9]; 48 h, read-out: survival rate of mice, day 2, 20 mg/kg intragastric once daily for 5 days, day 2): 100%
responders at 20 mg/kg ([9]; 72 h, read-out: survival rate of mice, day 3, 20 mg/kg intragastric once daily for 5 days, day 3): 100%
responders at 20 mg/kg ([9]; 96 h, read-out: survival rate of mice, day 4, 20 mg/kg intragastric once daily for 5 days, day 4): 90%
responders at 20 mg/kg ([9]; 120 h, read-out: survival rate of mice, day 5, 20 mg/kg intragastric once daily for 5 days, day 5): 80%
responders at 20 mg/kg ([9]; 144 h, read-out: survival rate of mice, day 6, 20 mg/kg intragastric once daily for 5 days, day 6): 80%
responders at 20 mg/kg ([9]; 168 h, read-out: survival rate of mice, day 7, 20 mg/kg intragastric once daily for 5 days, day 7): 80%
responders at 20 mg/kg ([10]; 24 h, read-out: survival rate of mice, day 1): 100%
responders at 20 mg/kg ([10]; 48 h, read-out: survival rate of mice, day 2): 100%
responders at 20 mg/kg ([10]; 72 h, read-out: survival rate of mice, day 3): 100%
responders at 20 mg/kg ([10]; 96 h, read-out: survival rate of mice, day 4): 100%
responders at 20 mg/kg ([10]; 120 h, read-out: survival rate of mice, day 5): 100%
responders at 20 mg/kg ([10]; 144 h, read-out: survival rate of mice, day 6): 100%
responders at 20 mg/kg ([10]; 168 h, read-out: survival rate of mice, day 7): 90%
